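Protocol summary: plate cells (96-well), add compound at 5 concentrations, incubate 48 h, interpolate endpoints linearly. GI50: concentration for 50% inhibition of growth. TGI marks complete inhibition of growth.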
Tests used:
Test in all cases: inhibition of tumour cell growth, NCI panel, 48 h
[1] = system: SK-MEL-28 melanoma
[2] = system: OVCAR-4 ovarian
[3] = system: KM12 colon
[4] = system: BT-549 breast
[5] = system: CCRF-CEM leukemia
[6] = system: SNB-19 CNS
[7] = system: HT29 colon
[8] = system: OVCAR-8 ovarian
[9] = system: IGROV1 ovarian
[10] = system: SW-620 colon
[11] = system: ACHN renal
[12] = system: HL-60(TB) leukemia
[13] = system: UACC-257 melanoma
[14] = system: SF-295 CNS
[15] = system: UO-31 renal
[16] = system: OVCAR-5 ovarian
[17] = system: T-47D breast
[18] = system: A498 renal
[19] = system: DU-145 prostate
[20] = system: RXF 393 renal
[21] = system: SN12C renal
[22] = system: SK-MEL-2 melanoma
[23] = system: SF-268 CNS
[24] = system: LOX IMVI melanoma
[25] = system: HCC-2998 colon
[26] = system: TK-10 renal
[27] = system: COLO 205 colon
[28] = system: MDA-MB-435
[29] = system: NCI-H522 lung
[30] = system: HCT-15 colon
[31] = system: K-562 leukemia
[32] = system: NCI/ADR-RES ovarian
[33] = system: SK-MEL-5 melanoma
[34] = system: M14 melanoma
[35] = system: OVCAR-3 ovarian
[36] = system: EKVX NSCLC

SMILES: COc1ccc2[nH]cc(-c3cc(N)n4nc(-c5c[nH]c6ccc(OC)cc56)cc4n3)c2c1
- GI50 [1]: 1.82 µM
- TGI [1]: 3.31 µM
- GI50 [2]: 2.28 µM
- TGI [2]: 5.32 µM
- GI50 [3]: 1.88 µM
- TGI [3]: 3.59 µM
- GI50 [4]: 5.54 µM
- TGI [4]: 21.2 µM
- GI50 [5]: 2.81 µM
- TGI [5]: 8.78 µM
- GI50 [6]: 3.25 µM
- TGI [6]: 14.2 µM
- GI50 [7]: 1.79 µM
- TGI [7]: 3.34 µM
- GI50 [8]: 1.84 µM
- TGI [8]: 3.72 µM
- GI50 [9]: 2.26 µM
- TGI [9]: 5.73 µM
- GI50 [10]: 1.68 µM
- TGI [10]: 3.26 µM
- GI50 [11]: 1.85 µM
- TGI [11]: 3.45 µM
- GI50 [12]: 1.92 µM
- TGI [12]: 4.73 µM
- GI50 [13]: 1.73 µM
- TGI [13]: 3.17 µM
- GI50 [14]: 1.87 µM
- TGI [14]: 3.49 µM
- GI50 [15]: 1.65 µM
- TGI [15]: 3.55 µM
- GI50 [16]: 2.44 µM
- TGI [16]: 6.31 µM
- GI50 [17]: 1.91 µM
- TGI [17]: 4.13 µM
- GI50 [18]: 1.92 µM
- TGI [18]: 3.86 µM
- GI50 [19]: 1.93 µM
- TGI [19]: 3.58 µM
- GI50 [20]: 1.67 µM
- TGI [20]: 3.23 µM
- GI50 [21]: 1.98 µM
- TGI [21]: 3.91 µM
- GI50 [22]: 1.79 µM
- TGI [22]: 3.5 µM
- GI50 [23]: 2.13 µM
- TGI [23]: 4.77 µM
- GI50 [24]: 2.23 µM
- TGI [24]: 3.85 µM
- GI50 [25]: 1.97 µM
- TGI [25]: 3.59 µM
- GI50 [26]: 2.27 µM
- TGI [26]: 5.23 µM
- GI50 [27]: 1.65 µM
- TGI [27]: 3.13 µM
- GI50 [28]: 1.74 µM
- TGI [28]: 3.26 µM
- GI50 [29]: 1.72 µM
- TGI [29]: 3.32 µM
- GI50 [30]: 1.99 µM
- TGI [30]: 4.98 µM
- GI50 [31]: 2.4 µM
- TGI [31]: > 100 µM
- GI50 [32]: 3.09 µM
- TGI [32]: 14.3 µM
- GI50 [33]: 1.7 µM
- TGI [33]: 3.08 µM
- GI50 [34]: 1.81 µM
- TGI [34]: 3.38 µM
- GI50 [35]: 1.95 µM
- TGI [35]: 3.83 µM
- GI50 [36]: 1.73 µM
- TGI [36]: 3.58 µM

Reference: PubChem BioAssay (NCI)
